Where a name gives a salt, the structure may show the parent alone. Read-outs that look alike come from different tables or passages of the source.
Columns and labels:
[1] = molecular target: Met (phospho-Met, HGF-stimulated PC-3 prostate cancer cells) (Homo sapiens (Human), UniProt P08581); experiment: Met autophosphorylation ELISA in PC-3 cells (Example F); assay type: cell-based; settings: cellular activity; Met autophosphorylation ELISA in PC-3 cells; read-out: c-Met IC50
Summary of the method: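 Serum-starved (3 h) PC-3 cells were treated 1 h with compounds (8-point curve, 0.3% DMSO), then stimulated with 100 ng/mL human HGF for 10 min. Lysate phospho-Met (panTyr) was measured by sandwich ELISA, normalised to DMSO and reference-inhibitor controls. IC50 came from 4-parameter logistic fit.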

[2] = molecular target: Human KDR (residues 790-1356) (Homo sapiens (Human), UniProt P35968); experiment: Human KDR kinase assay, HTRF KinEase (Example B-2); assay type: biochemical
Method: (§1) Kinase activity and compound inhibition were also investigated using the HTRF® KinEase assay (Cisbio Cat #62TKOPEB) per manufacturer's instructions. In short, compounds were delivered in 300 nL volumes at 10 different concentrations in DMSO (3% final) to empty 384-well assay plates (Corning cat #3824). A mixture of enzyme, […] biotynlated peptide substrate, and buffer in 10 μL volume was added. The assay was started upon the addition of ATP (at Km). The 10 μL reaction was incubated at room temperature. The reaction was stopped upon the addition of detection buffer containing streptavidin-XL665 ([…]) and TK antibody-Eu3+([…]). After a 60 min incubation at room temperature, the fluorescence at 665 nm and 620 nm was read on an Envision microplate reader (Perkin Elmer).
(§2) Kinase activity normalized to DMSO (100% activity) and reference compound at […] and (0% activity) was calculated using the fluorescence ratio […]. IC50 values were calculated by nonlinear regression analysis using a 4-parameter logistic curve fit in ActivityBase XE (IDBS).
(§3) Example B-2: Human KDR (residues 790-1356; CarnaBio, 0.1 ng/well) was also incubated with enzymatic buffer (Cisbio) supplemented with 5 mM MgCl2, 1 mM MnCl2, and 1 mM DTT. The mixture was added to the pre-plated compounds. The reaction was initiated upon addition of ATP at Km (4.0 μM). The reaction was incubated at room temperature for 40 min and stopped upon the addition of SA-XL665 and TK-antibody both diluted in EDTA-containing kinase detection buffer (Cisbio). The kinase activity was calculated as stated above and the IC50 values were reported.

[3] = molecular target: Mer (phospho-Mer, MERTK-transfected 293A cells) (Homo sapiens (Human), UniProt Q12866); experiment: Mer autophosphorylation ELISA in transient transfected 293A cells (Example H); assay type: cell-based; settings: cellular activity; Mer autophosphorylation ELISA in transient transfected 293A cells
Summary of the method: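 MERTK-transfected 293A; 8-pt dose, 1 h, serum-free, 0.3% DMSO. Cold lysis with orthovanadate and protease/phosphatase inhibitors. Phospho-Mer by DuoSet IC ELISA vs phospho-Mer standard. IC50: 4-PL fit; DMSO = 100%, reference inhibitor = 0%.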

[4] = molecular target: KDR (phospho-KDR, VEGF165-stimulated HUVEC cells) (Homo sapiens (Human), UniProt P35968); experiment: KDR autophosphorylation ELISA in HUVEC cells (Example G); assay type: cell-based; settings: cellular activity; KDR autophosphorylation ELISA in HUVEC cells
Summary of the method: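 Inhibition of VEGF165-driven KDR autophosphorylation is measured in primary human umbilical vein endothelial cells after 24 h serum deprivation. Compound preincubation lasts 1 h before a 5-minute challenge with 100 ng/mL ligand, and phosphorylated receptor is then measured by ELISA in the lysates.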

[5] = molecular target: Human MER (residues 528-999) (Homo sapiens (Human), UniProt Q12866); experiment: Human Mer kinase assay, HTRF KinEase (Example C-2); assay type: biochemical
Method: as §1, §2
Example C-2: Human MER (residues 528-999; CarnaBio, 1 ng/well) was also incubated with enzymatic buffer (Cisbio) supplemented with 5 mM MgCl2 and 1 mM DTT. The mixture was added to the pre-plated compounds. The reaction was initiated upon addition of ATP at Km (40 μM). The reaction was incubated at room temperature for 60 min and stopped upon the addition of SA-XL665 and TK-antibody both diluted in EDTA-containing kinase detection buffer (Cisbio). The kinase activity was calculated as stated above and the IC50 values were reported.

[6] = molecular target: Human MET (residues 956-1390) (Homo sapiens (Human), UniProt P08581); experiment: Human Met kinase assay, HTRF KinEase (Example D-2); assay type: biochemical; settings: read-out: c-Met IC50
Method: as §1, §2
as §3, with “D-2:” for “B-2:”, “MET” for “KDR”, “956-1390;” for “790-1356;”, “DTT” for “MnCl2,”, “MnCl2.” for “DTT.”, “The reaction was initiated upon addition of ATP at Km (4.0 μM).” left out

[7] = protocol of Example B-2 (other compounds)
[8] = protocol of Example C-2 (other compounds)
[9] = protocol of Example D-2 (other compounds)

Human KDR (residues 790-1356), sequence (P35968 790-1356): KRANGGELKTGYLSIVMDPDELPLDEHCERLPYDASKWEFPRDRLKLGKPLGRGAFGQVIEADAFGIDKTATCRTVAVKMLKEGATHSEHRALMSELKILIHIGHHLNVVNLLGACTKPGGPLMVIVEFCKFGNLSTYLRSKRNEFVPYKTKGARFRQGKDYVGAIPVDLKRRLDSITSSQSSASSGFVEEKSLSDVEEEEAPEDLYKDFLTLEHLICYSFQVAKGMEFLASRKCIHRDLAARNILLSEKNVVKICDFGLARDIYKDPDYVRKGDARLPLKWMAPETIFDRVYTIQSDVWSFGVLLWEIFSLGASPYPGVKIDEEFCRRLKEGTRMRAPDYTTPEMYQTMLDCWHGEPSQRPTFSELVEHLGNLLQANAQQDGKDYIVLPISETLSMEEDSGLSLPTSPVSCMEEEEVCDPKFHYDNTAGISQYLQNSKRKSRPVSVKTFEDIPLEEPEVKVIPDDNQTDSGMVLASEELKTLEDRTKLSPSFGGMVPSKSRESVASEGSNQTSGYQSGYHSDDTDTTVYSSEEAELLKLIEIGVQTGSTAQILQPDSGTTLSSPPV
Human MER (residues 528-999), sequence (Q12866 528-999): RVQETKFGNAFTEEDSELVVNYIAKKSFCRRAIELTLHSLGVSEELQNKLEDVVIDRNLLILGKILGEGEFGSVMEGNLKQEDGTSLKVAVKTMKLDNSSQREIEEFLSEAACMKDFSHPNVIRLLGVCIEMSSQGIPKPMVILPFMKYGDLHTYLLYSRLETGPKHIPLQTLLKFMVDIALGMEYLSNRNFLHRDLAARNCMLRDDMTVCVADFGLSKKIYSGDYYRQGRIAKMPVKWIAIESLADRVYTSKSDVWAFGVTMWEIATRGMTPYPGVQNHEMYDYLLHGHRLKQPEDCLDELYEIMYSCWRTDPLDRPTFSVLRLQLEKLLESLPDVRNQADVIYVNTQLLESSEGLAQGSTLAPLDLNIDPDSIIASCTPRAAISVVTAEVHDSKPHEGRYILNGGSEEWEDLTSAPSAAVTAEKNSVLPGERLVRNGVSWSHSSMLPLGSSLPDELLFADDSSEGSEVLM
Mer (phospho-Mer, MERTK-transfected 293A cells), sequence (Q12866 21-999): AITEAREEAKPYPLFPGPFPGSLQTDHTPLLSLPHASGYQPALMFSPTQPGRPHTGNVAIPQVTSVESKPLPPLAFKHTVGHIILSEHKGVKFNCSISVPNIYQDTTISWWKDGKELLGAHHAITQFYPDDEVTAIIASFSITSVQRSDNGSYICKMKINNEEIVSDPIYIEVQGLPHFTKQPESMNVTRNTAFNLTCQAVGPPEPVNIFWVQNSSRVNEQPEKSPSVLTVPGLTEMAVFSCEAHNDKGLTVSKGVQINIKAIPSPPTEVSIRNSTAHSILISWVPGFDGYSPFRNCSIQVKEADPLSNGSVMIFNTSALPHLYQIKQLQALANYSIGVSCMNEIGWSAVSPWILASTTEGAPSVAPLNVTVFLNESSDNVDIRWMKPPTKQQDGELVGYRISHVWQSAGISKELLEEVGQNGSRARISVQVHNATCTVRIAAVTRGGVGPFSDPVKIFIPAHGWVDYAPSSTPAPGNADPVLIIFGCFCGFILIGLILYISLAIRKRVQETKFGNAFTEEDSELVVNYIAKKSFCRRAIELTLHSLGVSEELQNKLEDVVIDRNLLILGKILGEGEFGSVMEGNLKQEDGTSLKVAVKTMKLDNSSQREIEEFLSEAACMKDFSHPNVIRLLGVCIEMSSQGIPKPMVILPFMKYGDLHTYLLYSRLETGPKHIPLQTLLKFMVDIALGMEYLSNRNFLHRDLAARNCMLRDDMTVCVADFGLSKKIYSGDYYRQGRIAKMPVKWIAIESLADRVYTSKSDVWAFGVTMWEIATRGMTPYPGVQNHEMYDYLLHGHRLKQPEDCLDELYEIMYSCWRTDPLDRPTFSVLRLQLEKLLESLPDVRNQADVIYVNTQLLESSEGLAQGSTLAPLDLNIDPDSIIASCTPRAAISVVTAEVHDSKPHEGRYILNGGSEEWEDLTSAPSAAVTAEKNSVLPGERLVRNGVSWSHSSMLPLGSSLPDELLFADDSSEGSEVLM
Met (phospho-Met, HGF-stimulated PC-3 prostate cancer cells), sequence (P08581 25-1390): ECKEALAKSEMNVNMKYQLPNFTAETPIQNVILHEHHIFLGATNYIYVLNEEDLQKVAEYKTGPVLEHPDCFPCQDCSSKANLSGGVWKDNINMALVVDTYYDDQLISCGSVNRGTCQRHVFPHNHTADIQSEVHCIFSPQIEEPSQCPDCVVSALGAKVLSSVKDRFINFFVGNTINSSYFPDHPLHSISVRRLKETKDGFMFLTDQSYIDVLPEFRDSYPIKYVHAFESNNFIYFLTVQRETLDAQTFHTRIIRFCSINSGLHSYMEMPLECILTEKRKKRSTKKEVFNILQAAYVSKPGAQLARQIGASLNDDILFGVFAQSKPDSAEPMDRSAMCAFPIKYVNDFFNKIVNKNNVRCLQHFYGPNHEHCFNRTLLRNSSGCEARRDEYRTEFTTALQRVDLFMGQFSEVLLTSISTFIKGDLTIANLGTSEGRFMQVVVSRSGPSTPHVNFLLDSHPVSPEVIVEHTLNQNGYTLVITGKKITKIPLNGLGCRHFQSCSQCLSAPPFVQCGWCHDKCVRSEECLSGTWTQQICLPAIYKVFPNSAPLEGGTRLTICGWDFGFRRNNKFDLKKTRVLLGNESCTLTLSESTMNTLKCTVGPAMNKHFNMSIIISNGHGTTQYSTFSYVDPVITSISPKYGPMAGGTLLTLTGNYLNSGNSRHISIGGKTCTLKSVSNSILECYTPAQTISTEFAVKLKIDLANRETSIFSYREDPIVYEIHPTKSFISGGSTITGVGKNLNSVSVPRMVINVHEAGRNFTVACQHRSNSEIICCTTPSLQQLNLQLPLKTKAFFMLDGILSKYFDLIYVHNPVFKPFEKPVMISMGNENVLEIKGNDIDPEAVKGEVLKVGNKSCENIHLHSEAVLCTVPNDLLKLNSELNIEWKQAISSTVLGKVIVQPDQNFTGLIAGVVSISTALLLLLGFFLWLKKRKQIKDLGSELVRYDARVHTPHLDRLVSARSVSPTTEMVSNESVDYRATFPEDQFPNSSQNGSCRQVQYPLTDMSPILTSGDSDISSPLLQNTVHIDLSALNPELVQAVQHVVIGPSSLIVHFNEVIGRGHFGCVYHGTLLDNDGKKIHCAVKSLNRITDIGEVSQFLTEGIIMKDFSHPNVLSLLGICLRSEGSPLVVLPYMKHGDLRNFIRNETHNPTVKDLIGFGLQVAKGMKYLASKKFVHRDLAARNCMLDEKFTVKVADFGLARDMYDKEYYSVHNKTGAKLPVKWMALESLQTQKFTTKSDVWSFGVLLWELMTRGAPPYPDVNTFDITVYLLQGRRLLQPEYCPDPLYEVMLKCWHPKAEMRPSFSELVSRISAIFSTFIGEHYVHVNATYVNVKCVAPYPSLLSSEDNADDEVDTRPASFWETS
Human MET (residues 956-1390), sequence (P08581 956-1390): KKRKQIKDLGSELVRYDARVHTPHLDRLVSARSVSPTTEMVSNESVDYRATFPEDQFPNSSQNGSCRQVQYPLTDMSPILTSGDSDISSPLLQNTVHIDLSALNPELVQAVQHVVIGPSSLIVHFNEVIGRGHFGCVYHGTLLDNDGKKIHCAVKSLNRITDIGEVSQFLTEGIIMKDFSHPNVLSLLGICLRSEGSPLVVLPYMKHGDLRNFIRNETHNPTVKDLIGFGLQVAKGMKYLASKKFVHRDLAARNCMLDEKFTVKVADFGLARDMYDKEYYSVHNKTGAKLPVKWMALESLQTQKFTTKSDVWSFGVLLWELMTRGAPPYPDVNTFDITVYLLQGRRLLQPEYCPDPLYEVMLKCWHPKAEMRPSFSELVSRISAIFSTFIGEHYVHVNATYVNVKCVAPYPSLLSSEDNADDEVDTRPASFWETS

IC50 [1] [nM]	IC50 ([2]; protocol of Example B-2) [nM]	IC50 [3] [nM]	IC50 [4] [nM]	IC50 ([5]; protocol of Example C-2) [nM]	IC50 [2, 7] [nM]	IC50 [5, 8] [nM]	IC50 ([6]; protocol of Example D-2) [nM]	IC50 [6, 9] [nM]	SMILES
< 100	100 to 300	< 100	< 100	< 100	–	–	–	–	COc1cc2nccc(Oc3ccc(NC(=O)c4ccnn(-c5ccc(F)cc5C)c4=O)cc3F)c2nc1OC [Compound 527, N-[4-[(6,7-dimethoxy-1,5-naphthyridin-4-yl)oxy]-3-fluorophenyl]-2-(4-fluoro-2-methylphenyl)-3-oxopyridazine-4-carboxamide]
< 100	–	< 100	< 100	< 100	–	–	< 100	–	COc1nc2c(Oc3ccc(NC(=O)c4cn(C(C)C)c(C)c(-c5ccc(F)cc5)c4=O)cc3F)ccnc2cc1-c1cnn(C(F)F)c1 [Compound 609, N-[4-[[7-[1-(Difluoromethyl)pyrazol-4-yl]-6-methoxy-1,5-naphthyridin-4-yl]oxy]-3-fluorophenyl]-5-(4-fluorophenyl)-6-methyl-4-oxo-1-propan-2-ylpyridine-3-carboxamide]
< 100	–	< 100	> 300	–	–	< 100	–	< 100	COc1cnc2c(Oc3ccc(NC(=O)c4c5n(cc(-c6ccc(F)cc6)c4=O)CCC5)cc3F)ccnc2c1 [Compound 405, N-[3-fluoro-4-[(7-methoxy-1,5-naphthyridin-4-yl)oxy]phenyl]-6-(4-fluorophenyl)-7-oxo-2,3-dihydro-1H-indolizine-8-carboxamide]
< 100	–	< 100	100 to 300	< 100	–	–	< 100	–	COc1nc2c(Oc3ccc(NC(=O)c4cn(C(C)C)cc(-c5ccc(F)cc5)c4=O)cc3F)ccnc2cc1-c1cccnc1 [Compound 605, N-[3-Fluoro-4-[(6-methoxy-7-pyridin-3-yl-1,5-naphthyridin-4-yl)oxy]phenyl]-5-(4-fluorophenyl)-4-oxo-1-propan-2-ylpyridine-3-carboxamide hydrochloride]
< 100	–	< 100	100 to 300	< 100	–	–	< 100	–	COc1nc2c(Oc3ccc(NC(=O)c4cn(C(C)C)c(C)c(-c5ccc(F)cc5)c4=O)cc3F)ccnc2cc1-c1cccnc1 [Compound 606, N-[3-Fluoro-4-[(6-methoxy-7-pyridin-3-yl-1,5-naphthyridin-4-yl)oxy]phenyl]-5-(4-fluorophenyl)-6-methyl-4-oxo-1-propan-2-ylpyridine-3-carboxamide hydrochloride]

The next lines start with the molecule.

SMILES	IC50 [1] [nM]	IC50 ([2]; protocol of Example B-2) [nM]	IC50 [3] [nM]	IC50 [4] [nM]	IC50 ([5]; protocol of Example C-2) [nM]	IC50 [2, 7] [nM]	IC50 [5, 8] [nM]	IC50 ([6]; protocol of Example D-2) [nM]	IC50 [6, 9] [nM]
COc1cc2nccc(Oc3ccc(NC(=O)c4c(C)c(Cl)c(C)n(-c5ccc(F)cc5)c4=O)cc3F)c2nc1OC [Compound 308, 5-Chloro-N-[4-[(6,7-dimethoxy-1,5-naphthyridin-4-yl)oxy]-3-fluorophenyl]-1-(4-fluorophenyl)-4,6-dimethyl-2-oxopyridine-3-carboxamide]	< 100	–	< 100	< 100	–	> 300	< 100	–	–
Cc1ccn(-c2ccc(F)cc2)c(=O)c1C(=O)Nc1ccc(Oc2ccnc3cccnc23)c(F)c1 [Compound 303, N-[3-Fluoro-4-(1,5-naphthyridin-4-yloxy)phenyl]-1-(4-fluorophenyl)-4-methyl-2-oxopyridine-3-carboxamide]	< 100	–	< 100	> 300	–	> 300	100 to 300	–	–
COc1cnc2c(Oc3ccc(NC(=O)c4cnc(C)c(-c5ccc(F)cc5)c4O)cc3)ccnc2c1 [Compound 147, 5-(4-Fluorophenyl)-4-hydroxy-N-[4-[(7-methoxy-1,5-naphthyridin-4-yl)oxy]phenyl]-6-methylpyridine-3-carboxamide]	< 100	–	< 100	< 100	–	–	< 100	–	< 100
CNn1cc(C(=O)Nc2ccc(Oc3ccnc4cc(OC)c(OC)nc34)c(F)c2)c(=O)c(-c2ccc(F)cc2)c1 [Compound 135, N-[4-[(6,7-Dimethoxy-1,5-naphthyridin-4-yl)oxy]-3-fluorophenyl]-5-(4-fluorophenyl)-1-(methylamino)-4-oxopyridine-3-carboxamide]	< 100	–	< 100	< 100	–	–	< 100	–	< 100
COc1cc2nccc(Oc3ccc(NC(=O)c4ccc(CO)n(-c5ccc(F)cc5)c4=O)cc3F)c2nc1OC [Compound 357, N-[4-[(6,7-dimethoxy-1,5-naphthyridin-4-yl)oxy]-3-fluorophenyl]-1-(4-fluorophenyl)-6-(hydroxymethyl)-2-oxopyridine-3-carboxamide]	< 100	–	< 100	–	–	< 100	< 100	–	–
COc1cc2nccc(Oc3ccc(NC(=O)c4c5n(cc(-c6ccc(F)cc6)c4=O)CCC5)cc3F)c2nc1OC [Compound 404, N-[4-[(6,7-dimethoxy-1,5-naphthyridin-4-yl)oxy]-3-fluorophenyl]-6-(4-fluorophenyl)-7-oxo-2,3-dihydro-1H-indolizine-8-carboxamide]	< 100	–	< 100	< 100	–	–	< 100	–	< 100
COc1cc2nccc(Oc3ccc(NC(=O)c4cnc(C)n(-c5ccc(F)cc5)c4=O)cc3)c2nc1OC [Compound 267, N-[4-[(6,7-Dimethoxy-1,5-naphthyridin-4-yl)oxy]phenyl]-1-(4-fluorophenyl)-2-methyl-6-oxopyrimidine-5-carboxamide]	< 100	–	–	> 300	–	> 300	> 300	–	–
COc1cnc2c(Oc3ccc(NC(=O)c4c(C)nc(C)c(-c5ccc(F)cc5)c4O)cc3)ccnc2c1 [Compound 158, 5-(4-Fluorophenyl)-4-hydroxy-N-[4-[(7-methoxy-1,5-naphthyridin-4-yl)oxy]phenyl]-2,6-dimethylpyridine-3-carboxamide]	< 100	–	< 100	< 100	–	–	–	–	< 100
COc1ccc2nccc(Oc3ccc(NC(=O)c4cn(C(C)C)c(C)c(-c5ccc(F)cc5)c4=O)cc3F)c2n1 [Compound 110, N-[3-Fluoro-4-[(6-methoxy-1,5-naphthyridin-4-yl)oxy]phenyl]-5-(4-fluorophenyl)-6-methyl-4-oxo-1-propan-2-ylpyridine-3-carboxamide]	< 100	–	< 100	> 300	–	–	< 100	–	< 100
COc1cc2nccc(Oc3ccc(NC(=O)c4cn(N(C)C)cc(-c5ccc(F)cc5)c4=O)cc3F)c2nc1OC [Compound 136, N-[4-[(6,7-Dimethoxy-1,5-naphthyridin-4-yl)oxy]-3-fluorophenyl]-1-(dimethylamino)-5-(4-fluorophenyl)-4-oxopyridine-3-carboxamide]	< 100	–	< 100	< 100	–	–	< 100	–	< 100

— patent publication US12371428B2 (Exelixis, Inc., priority 2019, dated 2025)
